Test results reported in patent US8415156B2, “Recombinant laminin-521” (Biolamina AB, priority 2010, dated 2013).

How the values were obtained:
[1] = tested on: Oct4, Nanog, SSEA4; PAX6, SOX17, SOX7; assay: Expression of pluripotency and differentiation markers (Example 2); assay type: cell-based, human; conditions: compared with Matrigel passed as small clumps
Protocol: For immunofluorescence studies, ES cells were cultured and fixed in 8-well slide chambers (BD Biosciences) or 96-well plate wells by 4% paraformaldehyde, permeabilized by 0.1% Triton-X and blocked by 10% bovine fetal serum (GIBCO Invitrogen Corporation) in phosphate-saline buffer (PBS) containing 0.1% Tween-20 (Sigma-Aldrich, St. Louis, www.sigmaaldrich.com) for one hour. Incubation with primary antibody was performed for 1.5 hours at room temperature. Incubation with secondary antibody and 4,6-diamidino-2-phenylindole (DAPI, Molecular Probes) was performed for 40 minutes. Between incubations, the specimens were washed with 0.1% Tween-20 in PBS buffer three to five times. Specimens were preserved in a fluorescence mounting medium (Dako, Glostrup, Denmark, http://www.dako.com), and observed under a fluorescence microscope (Leica, Heerbrugg, Switzerland, http://www.leica.com).
Total RNA was isolated using Absolutely RNA Microprep Kit (Stratagene, La Jolla Calif., www.stratagene.com) according to the manufacturer's instructions. cDNA was synthesized using 0.2 μg of total RNA in 20 μl reaction mixture, containing oligo(dT)12-18 primers and Superscript II reverse transcriptase (GIBCO Invitrogen Corporation), according to the manufacturer's instructions. […] All data was analyzed with 7300 System SDS Software v 1.4. […]

[2] = tested on: human iPS ChiPSW and CutB1.2 cells; assay: Long-term self-renewal of human iPS cells on LN-521; assay type: cell-based; conditions: mTeSR1
[3] = tested on: human embryonic stem cell; assay: Survival after dissociation into single cell suspension (description); assay type: cell-based; conditions: O3 medium; 30 Kcells/cm^2; precoated dishes
Description: In other aspects, the present disclosure provides a new material, isolated laminin-521, which permits human embryonic stem cell survival after dissociation into single cell suspension. The stem cells were dissociated into single cell suspension by Trypsin-EDTA treatment, pelleted by centrifugation, resuspended into O3 medium, filtered through a 40 μm sieve, and plated at a density of 30 Kcells/cm^2 on cell culture dishes precoated by either isolated laminin-521, laminin-511, or Matrigel. After one day in culture, the cells plated on Matrigel died, as is known in the art.

HS181 cells = assay: Single cell survival / cell adhesion, 1 day after plating (Example 1); assay type: cell-based, human
Protocol: Human ES cells were cultured on r-laminin-521-coated laboratory dishes in chemically defined O3 medium (described in Rodin et al., Nature Biotechnol., vol. 28, pp. 611-615 (2010)) at 37° C. in 5% CO2. Cells were routinely passed once every 10-12 days by exposure to Trypsin-EDTA solution (GIBCO Invitrogen) for 5 minutes at 37° C. They were then gently pipetted to break into single-cell suspension and defined trypsin inhibitor (GIBCO Invitrogen) was added. The cell suspension was centrifuged […], the supernatant discarded, the cell pellet resuspended in prewarmed O3 medium, and cells were then passed through a 40 μm sieve. After that cells were plated on new r-laminin-521-coated dishes at a concentration 30 Kcells/cm^2 (1:25-1:30 split ratio). Cells were fed once a day with fresh medium prewarmed in an incubator for 1 hour, except for the first day after a passage, when only a few drops of fresh medium were added. Control cells of the same line were cultured on Matrigel (BD Biosciences) in O3 medium as described in Rodin et al., Nature Biotechnol., vol. 28, pp. 611-615 (2010). Control cells were passaged in pieces.
Ninety-six-well tissue cell culture plates were coated overnight at 4° C. with sterile solutions of the ECM proteins mouse LN-111 (Invitrogen), human recombinant LN-511, and human recombinant LN-521, all at a concentration of 30 μg/ml (5 μg/cm^2). For control cells, BD Matrigel™ hESC qualified (BD Biosciences) was used according to the manufacturer's instructions.
The assay was performed as described (Extracellular Matrix Protocols, 2000). Briefly, 96-well plates were coated by extracellular matrix proteins as described above and blocked by O3 medium containing bovine serum albumin. The ES cells were plated at a cell density of 600 cell/mm^2 upon extracellular matrix-coated plates and were left to adhere for either 1 hour or 1 day at the cell incubator. Non-adherent cells were washed away, and adherent cells were fixed for 20 min by 5% glutaraldehyde, stained by 0.1% Crystal Violet.

hES cells = assay: Embryoid body formation; assay type: cell-based, human; conditions: same three cultures as teratoma test
Protocol: ES cells from LN-521 coated cell culture dishes were exposed to TrypLE™ Select for one minute at 37° C., 5% CO2, washes two times with a medium, broken into large pieces and cultured in suspension in low adhesion plates. The medium used for this was Knockout DMEM (GIBCO Invitrogen Corporation) supplemented with 2 mM L-glutamine, 20% fetal calf serum (GIBCO Invitrogen Corporation), 0.1 mM β-mercaptoethanol (GIBCO Invitrogen Corporation) and 1% non-essential amino acids (GIBCO Invitrogen Corporation). After 1-2 weeks in suspension, the embryoid bodies were transferred onto gelatin coated tissue cell culture 96-well plates (Sarstedt), cultured for 1-2 weeks, then fixed, stained with antibodies against markers of all three embryonic germ line layers (smooth muscle actin, MAP-2 and α-fetoprotein) and analyzed as described above for immunofluorescence.

LN-521: protein formed by joining α5, β2 and γ1 chains together; human recombinant, produced in HEK293 cells
expression levels of pluripotency markers Oct4, Nanog, and SSEA4 [1]: stable expression levels
passages cultured, ChiPSW cells [2]: 3 passages
passages cultured, CutB1.2 iPS cells [2]: 5 passages
survival of hES cells plated from single cell suspension after one day in culture [3]: survived and started to proliferate
adhesion at 1 day without additives compared with dishes including the ROCK inhibitor (HS181 cells; 1 day after plating): similar
adhesion at 1 day relative to Matrigel without additives (HS181 cells; 1 day after plating, without additives): 20 times
adhesion at 1 day without additives compared with dishes including the ROCK inhibitor (HS181 cells; 1 day after plating, listed as LN-532): no ROCK inhibitor is necessary
single cell survival / cells remaining attached 24 hours after plating (HS181 cells; O3 medium without any additives, completely dissociated HS181 cells): survived
differentiation in vitro: embryoid bodies expressing markers of mesoderm, ectoderm and endoderm (hES cells): retained the competence to form embryoid bodies
